{"source": "patent US7351714B2", "about": "“7-imino derivatives of camptothecin having antitumor activity” (priority 2004, dated 2008)", "key": {"NCI H460": {"system": "NCI H460", "assay": "antiproliferative activity test (cytotoxic activity) on human tumour cells", "format": "cell-based", "settings": "H-460", "experimental": "Cytotoxic activity of the compounds of the present invention was assayed in cell systems of human tumour cells, using the antiproliferative activity test as a method of evaluation of the cytotoxic potential.\nThe cell line used is a lung non-small cell carcinoma that belongs to non-small cells hystotype named NCI H460."}, "[1]": {"system": "MKN-28 human gastric carcinoma", "assay": "antitumor activity per os in athymic nude mice bearing s.c. tumor xenograft", "format": "in vivo", "settings": "q4dx4; for TVI % (Tumor volume inhibition % in treated over control tumors): 11-12 day after last treatment", "excerpt": "A compound is considered active when TVI %≧50."}, "[2]": {"settings": "cited from earlier work"}}, "note": "pIC50: −log10 of the molar value.", "data": [{"smiles": "CC[C@@]1(O)C(=O)OCc2c1cc1n(c2=O)Cc2c-1nc1ccccc1c2C=Nc1ccccc1", "note": "[ST1546, 7-phenyliminomethylcamptothecin]", "values": [{"measurement": "pIC50", "setting": "NCI H460", "value": 6.89}]}, {"smiles": "CC[C@@]1(O)C(=O)OCc2c1cc1n(c2=O)Cc2c-1nc1ccccc1c2C=Nc1ccc([N+](=O)[O-])cc1", "note": "[ST1561, 7-(4-nitrophenyl)iminomethylcamptothecin]", "values": [{"measurement": "pIC50", "setting": "NCI H460", "value": 6.55}]}, {"smiles": "CC[C@@]1(O)C(=O)OCc2c1cc1n(c2=O)Cc2c-1nc1ccccc1c2C=Nc1ccccc1SSc1ccccc1N", "note": "[ST1737, 7-2-(2-aminophenyldithio)phenyliminomethylcamptothecin]", "values": [{"measurement": "pIC50", "setting": "NCI H460", "value": 7.77}, {"measurement": "Tox (Dead/treated mice)", "setting": "[1]; 4 mg/kg per os", "value": "0/4"}, {"measurement": "TVI % (Tumor volume inhibition % in treated over control tumors)", "setting": "[1]; 4 mg/kg per os", "value": 69, "unit": "%"}, {"measurement": "Tox (Dead/treated mice)", "setting": "[1]; 7 mg/kg per os", "value": "0/4"}, {"measurement": "TVI % (Tumor volume inhibition % in treated over control tumors)", "setting": "[1]; 7 mg/kg per os", "value": 56, "unit": "%"}, {"measurement": "BWL % (Body weight loss % induced by drug treatment)", "setting": "[1]; 12 mg/kg per os", "value": 4, "unit": "%"}, {"measurement": "Tox (Dead/treated mice)", "setting": "[1]; 12 mg/kg per os", "value": "0/4"}, {"measurement": "TVI % (Tumor volume inhibition % in treated over control tumors)", "setting": "[1]; 12 mg/kg per os", "value": 68, "unit": "%"}]}, {"smiles": "CC[C@@]1(O)C(=O)OCc2c1cc1n(c2=O)Cc2c-1nc1ccccc1c2C=Nc1ccc(SSc2ccc(N)cc2)cc1", "note": "[ST2034, 7-4-(4-aminophenyldithio)phenyliminomethylcamptothecin]", "values": [{"measurement": "pIC50", "setting": "NCI H460", "value": 6.41}]}, {"smiles": "CC[C@@]1(O)C(=O)OCc2c1cc1n(c2=O)Cc2c-1nc1ccccc1c2C=Nc1ccc(Sc2ccc(N)cc2)cc1", "note": "[ST2069, 7-4-(4-aminophenylthio)phenyliminomethylcamptothecin]", "values": [{"measurement": "pIC50", "setting": "NCI H460", "value": 6.62}]}, {"smiles": "CC[C@@]1(O)C(=O)OCc2c1cc1n(c2=O)Cc2c-1nc1ccccc1c2C=Nc1ccccc1SC", "note": "[ST2138, 7-(2-methylthiophenyl)iminomethylcamptothecin]", "values": [{"measurement": "pIC50", "setting": "NCI H460", "value": 7.22}]}, {"smiles": "CC[C@@]1(O)C(=O)OCc2c1cc1n(c2=O)Cc2c-1nc1ccccc1c2C=Nc1ccccc1C", "note": "[ST2212, 7-(2-methylphenyl)iminomethylcamptothecin]", "values": [{"measurement": "pIC50", "setting": "NCI H460", "value": 7.00}]}, {"smiles": "CC[C@@]1(O)C(=O)OCc2c1cc1n(c2=O)Cc2c-1nc1ccccc1c2C=Nc1ccccc1Cl", "note": "[ST2228, 7-(2-chlorophenyl)iminomethylcamptothecin]", "values": [{"measurement": "pIC50", "setting": "NCI H460", "value": 7.15}]}, {"smiles": "CC[C@@]1(O)C(=O)OCc2c1cc1n(c2=O)Cc2c-1nc1ccccc1c2C=Nc1ccccc1I", "note": "[ST2316, 7-(2-iodophenyl)iminomethylcamptothecin]", "values": [{"measurement": "pIC50", "setting": "NCI H460", "value": 7.22}]}, {"smiles": "CC[C@@]1(O)C(=O)OCc2c1cc1n(c2=O)Cc2c-1nc1ccccc1c2C=Nc1c(C)cccc1C", "note": "[ST2317, 7-(2,6-dimethylphenyl)iminomethylcamptothecin]", "values": [{"measurement": "pIC50", "setting": "NCI H460", "value": 6.82}]}, {"smiles": "CC[C@@]1(O)C(=O)OCc2c1cc1n(c2=O)Cc2c-1nc1ccccc1c2C=Nc1ccccc1OC", "note": "[ST2343, 7-(2-methoxyphenyl)iminomethylcamptothecin]", "values": [{"measurement": "pIC50", "setting": "NCI H460", "value": 7.22}]}, {"smiles": "CC[C@@]1(O)C(=O)OCc2c1cc1n(c2=O)Cc2c-1nc1ccccc1c2C=Nc1ccccc1C(C)(C)C", "note": "[ST2388, 7-(2-t-butylphenyl)iminomethylcamptothecin]", "values": [{"measurement": "pIC50", "setting": "NCI H460", "value": 7.15}]}, {"smiles": "CC[C@@]1(O)C(=O)OCc2c1cc1n(c2=O)Cc2c-1nc1ccccc1c2C=Nc1ccccc1O", "note": "[ST2389, 7-(2-hydroxyphenyl)iminomethylcamptothecin]", "values": [{"measurement": "pIC50", "setting": "NCI H460", "value": 7.22}]}, {"smiles": "CC[C@@]1(O)C(=O)OCc2c1cc1n(c2=O)Cc2c-1nc1ccccc1c2C=Nc1ccc(Cl)cc1", "note": "[ST2412, 7-(4-chlorophenyl)iminomethylcamptothecin]", "values": [{"measurement": "pIC50", "setting": "NCI H460", "value": 7.10}]}, {"smiles": "CC[C@@]1(O)C(=O)OCc2c1cc1n(c2=O)Cc2c-1nc1ccccc1c2C=Nc1ccc(OC)cc1", "note": "[ST2477, 7-(4-methoxyphenyl)iminomethylcamptothecin]", "values": [{"measurement": "pIC50", "setting": "NCI H460", "value": 6.80}]}, {"smiles": "CCC1(O)C(=O)OCc2c1cc1n(c2=O)Cc2c-1nc1ccccc1c2C=Nc1ccc(C)cc1", "note": "(stereo not shown) [ST2478, 7-(4-methylphenyl)iminomethylcamptothecin]", "values": [{"measurement": "pIC50", "setting": "NCI H460", "value": 6.74}]}, {"smiles": "CCC1(O)C(=O)OCc2c1cc1n(c2=O)Cc2c-1nc1ccccc1c2C=Nc1ccc(O)cc1", "note": "(stereo not shown) [ST 2616, 7-(4-hydroxyphenyliminomethyl)-camptothecin]", "values": [{"measurement": "pIC50", "setting": "NCI H460", "value": 6.66}]}, {"smiles": "CCC1(O)C(=O)OCc2c1cc1n(c2=O)Cc2c-1nc1ccccc1c2C=Nc1ccc(C(C)(C)C)cc1", "note": "(stereo not shown) [ST 2619, 7-(4-tert-butylphenyliminomethyl)-camptothecin]", "values": [{"measurement": "pIC50", "setting": "NCI H460", "value": 7.05}]}, {"smiles": "CCC1(O)C(=O)OCc2c1cc1n(c2=O)Cc2c-1nc1ccccc1c2C=Nc1ccc(SC)cc1", "note": "(stereo not shown) [ST 2667, 7-(4-methylthiophenyliminomethyl)-camptothecin]", "values": [{"measurement": "pIC50", "setting": "NCI H460", "value": 7.13}]}, {"smiles": "CC[C@@]1(O)C(=O)OCc2c1cc1n(c2=O)Cc2cc3c(CN(C)C)c(O)ccc3nc2-1", "note": "[Topotecan]", "values": [{"measurement": "level in the cerebrospinal fluid with respect to plasma", "setting": "[2]; 10 minutes after infusion", "value": 30, "unit": "%"}, {"measurement": "lactone form hydrolysed to open ring", "setting": "[2]; 30 minutes after infusion", "value": 50, "unit": "%"}]}]}
